Test results taken from US5604211A, “Saccharide for supplementing energy to living body, and uses” (priority 1991, dated 1997).
One block for each molecule: values may come before it.

Legend:
[1] = Digestion test in vitro, enzyme of small intestinal mucous membrane; format: in vitro ADME; settings: small intestinal mucosal enzyme, Tables 1 and 2, read-out: Hydrolysis rate
Procedure: (§1) In accordance with the method reported in K. Okada et al., Journal of Japanese Society of Nutrition and Food Science, Vol.43, No.1, pp.23-29 (1990), a crystalline neotrehalose specimen formulated by the method in Example A1-2 was prepared as an aqueous solution which was then tested for its digestibility in vitro: The digestibility was determined with the following equation and expressed as hydrolysis rate (%): [formula]
Similarly as above, several kinds of disaccharides were tested for their digestibility using the enzyme of the small intestinal mucous membrane.

[2] = Utilization test in vivo, intravenous instillation to healthy volunteers (blood sugar, insulin, urine); design: species or system human; settings: for dose excreted: urine, 50000 mg, read-out: amount of glucose in the urine
Procedure: A neotrehalose specimen prepared by the method in Example A1-2 was treated to remove pyrogens in the usual manner, and 50 g of the resultant neotrehalose specimen was in accordance with the method reported in Matsuzaki, Yakubutsu Ryoho, Vol.6, No.2, pp.65-72 (1973), formulated as a 10 w/v % aqueous solution which was then intravenously administered to 2 healthy volunteers by instillation. Their blood was sampled at prescribed time intervals and blood sugar and insulin levels were measured, along with the amount of neotrehalose secreted in their urine. As controls, glucose and maltose were used.

[3] = acidic conditions; cited from earlier work
amylases = settings: Japanese Patent Laid-Open No.240,758/88; cited from earlier work
[4] = prior art, Japanese patent publications; cited from earlier work
[5] = Digestion test in vitro, gastric juice; format: in vitro ADME; settings: Table 1, read-out: Hydrolysis rate
Procedure: as §1

dd mice = assay: Acute toxicity test, oral, mice; format: in vivo, mouse; settings: 7 week-old dd mice
Text: A crystalline neotrehalose specimen, prepared by the method in Example A1-2, was orally administered to 7 week-old dd mice as an acute toxicity test. […] Therefore, the toxicity of the tested substance appears to be extremely low.

[6] = Utilization test in vivo, oral administration to healthy volunteers (blood sugar and insulin); design: species or system human
Text: In accordance with the method described in H. Atsuji et al., Journal of Clinical Nutrition, Vol.41, Vol.2, pp.200-208 (1972), 30 g of a neotrehalose specimen was formulated as a 20 w/v % aqueous solution which was then orally administered to 3 healthy volunteers (men) and their blood was sampled at prescribed time intervals and tested for blood sugar and insulin levels. As a control, glucose was used.

[7] = Digestion test in vitro, salivary amylase; format: in vitro ADME; settings: Table 1, read-out: Hydrolysis rate
Procedure: as §1

[8] = Digestion test in vitro, amylopsin; format: in vitro ADME; settings: Table 1, read-out: Hydrolysis rate
Procedure: as §1

[9] = when the dose and administration method are not correctly chosen; cited from earlier work
[10] = human, 50 g as 10 w/v % aqueous solution, intravenous instillation, 2 healthy volunteers
[11] = 50 g as 10 w/v % aqueous solution, intravenous instillation, 2 healthy volunteers
[12] = 30 g as 20 w/v % aqueous solution, oral, 3 healthy volunteers, about

metabolised [1]: 0.1%
SMILES: OC[C@H]1O[C@@H](O[C@@H]2O[C@H](CO)[C@@H](O)[C@H](O)[C@H]2O)[C@H](O)[C@@H](O)[C@@H]1O [Isotrehalose (β,β-trehalose), β,β-trehalose]

dose excreted [2, 10]: < 20%
SMILES: OC[C@H]1O[C@H](O[C@H]2[C@H](O)[C@@H](O)[C@H](O)O[C@@H]2CO)[C@H](O)[C@@H](O)[C@@H]1O [Maltose, reference compound]

SMILES: OC[C@H]1O[C@@](CO)(O[C@H]2O[C@H](CO)[C@@H](O)[C@H](O)[C@H]2O)[C@@H](O)[C@@H]1O [Sucrose]
hydrolysis into glucose and fructose [3]: readily hydrolyzed

metabolised [1]: 0.4%
SMILES: OC[C@H]1O[C@H](O[C@H]2O[C@H](CO)[C@@H](O)[C@H](O)[C@H]2O)[C@H](O)[C@@H](O)[C@@H]1O [Trehalose (α,α-trehalose), α,α-trehalose]
hydrolysis by enzymes such as amylases (amylases): not readily hydrolyzed
metabolism and utilization in vivo [4]: not readily metabolized and absorbed by the human body

blood sugar level ([2]; human, in vivo, iv): greatly increased
insulin level ([2]; human, in vivo, iv): greatly increased
dose excreted [2, 10]: < 10%
SMILES: OC[C@H]1OC(O)[C@H](O)[C@@H](O)[C@@H]1O (stereo partly drawn) [glucose, reference compound]

SMILES: OC[C@@H](O)[C@@H](O[C@@H]1O[C@H](CO)[C@H](O)[C@H](O)[C@H]1O)[C@H](O)[C@@H](O)CO [lactitol]
metabolism and utilization in vivo [4]: not readily metabolized and utilized in vivo

SMILES: OC[C@@H](O)[C@@H](O[C@H]1O[C@H](CO)[C@@H](O)[C@H](O)[C@H]1O)[C@H](O)[C@@H](O)CO [maltitol]
metabolism and utilization in vivo [4]: not readily metabolized and utilized in vivo

SMILES: OC[C@H]1O[C@@H](O[C@H]2O[C@H](CO)[C@@H](O)[C@H](O)[C@H]2O)[C@H](O)[C@@H](O)[C@@H]1O [neotrehalose, O-α-D-glucopyranosyl β-D-glucopyranoside]
blood sugar level [2, 11]: slightly increased
insulin level [2, 11]: did not greatly increase
dynamics of blood sugar and insulin compared with maltose ([2]; 50 g intravenous, controls glucose and maltose): the same dynamics as maltose
dose excreted [2, 10]: < 20%
metabolised [5]: 0%
toxicity (dd mice): extremely low
highest administered dose without animal death (dd mice; difficult to administer a higher dose): 5 g
animal death (dd mice; up to 5 g): no animal death
time of maximum value of blood sugar level after oral administration [6, 12]: 0.5 to 1 h
time of maximum value of insulin level after oral administration [6, 12]: 0.5 to 1 h
behaviour of blood sugar and insulin levels compared with glucose ([6]; 30 g oral, control glucose): behaved similarly as glucose
metabolised [7]: 0%
metabolised [8]: 0%
metabolised [1]: 43%

SMILES: OC[C@@H](O)[C@@H](O)[C@H](O)[C@@H](O)CO [sorbitol]
diarrhea [9]: acute diarrhea

SMILES: OC[C@@H](O)[C@H](O)[C@@H](O)CO [xylitol]
diarrhea [9]: acute diarrhea
